Assay results: patent US5830903A, “Triazole substituted quinoline derivatives for gastrointestinal treat-treatment” (Alkaloida Chemical Co., Ltd., priority 1993, dated 1998)
Marks after values point to notes of the source that are not given here.

Legend:
[1] = test system: stress ulcer caused by immersion; assay: Stress ulcer caused by immersion; assay type: in vivo, Wistar rats
Protocol: 30 minutes after peroral treatment with the test substance, […]. After seven hours the glandular lesions appearing in the stomach were evaluated according to the score described in Example I.1.

[2] = test system: lesions caused by the NSAID piroxicam; assay: Piroxicam-induced gastric erosions, test substance 1 hour after piroxicam; assay type: in vivo, WISTAR rats; conditions: n = 7
Protocol: (§1) Administration of the test substances followed 1 hour after injection. After 4 hours the animals were over-anesthesized with ether and the changes (erosions) were evaluated as in Example I.1. The size of the lesions was characterized by way of the ulcer index.

[3] = Acute toxicity in mice; conditions: mouse, in vivo, po, per os, 14 days
Protocol: (§2) To determine acute toxicity the test substances were administered in increasing doses to CFLP male mice (18-20 g) and to male Wistar rats (150-160 g). The LD50 values were calculated after 14 days of observation according to Litchfield and Wilcoxon.

[4] = test system: lesions induced with hydrochloric acid and ethanol; assay: Gastric haemorrhages induced by hydrochloric acid in ethanol (cytoprotection); assay type: in vivo, female rats; conditions: for average length of haemmorrhages, change in %: treated vs control
Protocol: The volume of treatment was 0.5 ml/100 g. […] The average degree of haemorrhages of the treated groups was compared to the control groups treated with the vehicle only. Number of animals was 6-18 in each group.

[5] = test system: alcohol induced increase of gastric glandular capillary permeability; assay: Alcohol induced increase of gastric glandular capillary permeability; assay type: in vivo, rats; conditions: for Evans-blue: p < 0.05
Protocol: After 13 minutes 1 ml of 100% ethanol was added perorally and after further 2 minutes the stomachs were removed and their weights measured. […]

[6] = test system: lesions caused by intomethacin; assay: Indomethacin-induced gastric lesions; assay type: in vivo, female OFA-rats; conditions: Rattus norvegicus, po, 60 min before 20 mg/kg indomethacin; 6 h; from ulcer index; confidence limits 95%; read-out: ED50 mg/kg (p.o.)
Protocol: The compounds were administered in a volume of 0.5 ml/100 g in a suspension prepared in water with 2-4% Tween-80. After 6 hours the animals were over-anesthesized and their stomachs were opened along the greater curvature. The preparations were investigated by stereomicroscopy using an 8-fold enlargement. The number, size and incidence of erosions and ulcers was noted and compared with the control group treated with the carrier only.
The size of the ulcers was determined on the basis of the following score:
1: ulcer or erosion of the size of 1-2 mm;
2: ulcer or erosion of the size of 2-3 mm;
3: ulcer or erosion of the size of 3-4 mm;
4: ulcer longer than 4 mm;
5: ulcer longer and broader than 4 mm.
The ED50 values were calculated on the basis of ulcer-indexes:
ulcer index=/severeity of lesion x number of lesions/number of animals /n/

[7] = test system: histamine stimulated hydrochlorid acid secretion; assay: Histamine stimulated gastric acid secretion in Shay rats; assay type: in vivo; conditions: for acid secretion μEqu/4^h: p < 0.01
Protocol: The test substances were added on the course of operation intra-duodenally. Immediately after operation each rat obtained 0.50 ml s.c. of a physiological salt solution for hydration. After 4 hours the rats were over-anesthesized, the stomach liquid was collected, centrifugated and the volume determined. […] Measurement of stimulated secretion of gastric acid was also carried out according to the above method.

[8] = test system: lesions caused by the NSAID naproxen; assay: Naproxen-induced gastric erosions, test substance 1 hour after naproxen; assay type: in vivo, WISTAR rats; conditions: n = 7
Protocol: as §1

[9] = test system: gastric blood-supply; assay: Gastric blood-supply, Rb^86 isotope method (Sapirstain); assay type: in vivo, Wistar female rats; conditions: 100 mg/kg p.o., n = 11, ± SE
Protocol: To investigate influence of gastric blood-supply the tests were carried out according to the method of Sapirstain using Rb^86 isotopes (Circ.Res.4, 689, 1956; Am. J. Physiol. 193. 161,1958). The test substances were administered perorally 2 hours before the experiment started and the degree of blood flow was determined in ml/min/g values. In the experiments the stomachs of Wistar female rats were divided into three segments i.e. pre-stomach, corpus and anthrum.

[10] = test system: ulcers induced by reserpine; assay: Reserpine induced ulcers; assay type: in vivo, female OFA rats; conditions: 40 mg/kg p.o.; reserpine 5 mg/kg s.c.; 18 h
Protocol: Female OFA rats of 130-160 g weight, starved for 24 hours, were treated at the same time perorally with 40 mg/kg doses of the substances to be tested and with 5 mg/kg s.c. doses of reserpine. After 18 hours the animals were over-anesthesized and the removed stomachs were investigated under stereomicroscope using a 8-fold enlargement. The number of ulcers was counted and their size was evaluated using 0-0.5-1-2-4-8-16-32 scores. The number of animals was 5 for each dose.

[11] = test system: basic gastric acid secretion; assay: Basic gastric acid secretion in Shay rats (pylorus ligation); assay type: in vivo; conditions: for acidity μEqu/ml / volume: 4 h
Protocol: The pilorus of Shay rats of 150-170 g weight was tied in ether narcosis /Gastroenterology 5,43,1945/. The test substances were added on the course of operation intra-duodenally. Immediately after operation each rat obtained 0.50 ml s.c. of a physiological salt solution for hydration. After 4 hours the rats were over-anesthesized, the stomach liquid was collected, centrifugated and the volume determined. Acidity of the secretion was determined with 0.1N aqueous sodium hydroxide in the presence of a Tobfler reagent.

[12] = Acute toxicity in rats; conditions: rat, in vivo, po, per os, 14 days
Protocol: as §2

[13] = 25 mg/kg p.o., n = 10, p < 0.01
[14] = histamine 10 mg/kg s.c. + 5 mg/kg i.d., p < 0.05
[15] = naproxen 75 mg/kg po. + 20 mg/kg po.

Compound `c1ccc2c(-n3cncn3)ccnc2c1` [Substance 1, 4-(1H-1,2,4-triazole-1-yl)-quinoline] has an erosion inhibition % ([1]; 10 mg/kg p.o., n = 7) of 21%, an erosion ulcus-index mm ([1]; 10 mg/kg p.o., n = 7) of 33.6 ± 10.2 mm and a hyperemia inhibition % ([1]; 10 mg/kg p.o., n = 7) of 29%. For the same compound, the hyperemia ulcer-index mm ([1]; 10 mg/kg p.o., n = 7) was 64.3 ± 8.6 mm, the erosion ulcus-index mm ([1]; 25 mg/kg p.o., n = 10) was 12.1 ± 3.6 mm and the hyperemia ulcer-index mm ([1]; 25 mg/kg p.o., n = 10) was 35.8 ± 9.4 mm. For the same compound, the erosion inhibition % [1, 13] was 71%, the hyperemia inhibition % [1, 13] was 55% and the erosion ulcus-index mm ([1]; 50 mg/kg p.o., n = 7) was 5.7 ± 1.5 mm. It also gave a hyperemia ulcer-index mm ([1]; 50 mg/kg p.o., n = 7) of 11.4 ± 2.8 mm, an erosion inhibition % ([1]; 50 mg/kg p.o., n = 7, p < 0.01) of 87% and a hyperemia inhibition % ([1]; 50 mg/kg p.o., n = 7, p < 0.01) of 85%. The “inhibition of hyperemia and erosion (in words)” value ([1]; substance 1 at 50 mg/kg p.o., cimetidine) was “significally inhibit hyperemia and erosion”, the inhibition % ([2]; piroxicam 60 mg/kg po. + 20 mg/kg po.) was 84% and the “ulcus index ± SEM” value ([2]; piroxicam 60 mg/kg po. + 20 mg/kg po., p < 0.05) was 3.8 ± 0.4. The inhibition % ([2]; piroxicam, 30 mg/kg po.) was 93%, the “ulcus index ± SEM” value ([2]; piroxicam, 30 mg/kg po., p < 0.01) was 1.8 ± 0.5 and the LD50 at 336 h [3] was 840 mg/kg. For the same compound, the “average length of haemmorrhages, treated” value ([4]; 2.3 mg/kg p.o., n = 12, control 95.7 ± 9.4) was 91.0 ± 9.4 mm, the “average length of haemmorrhages, change in %” value (“average length … change in %” below) ([4]; 2.3 mg/kg p.o.) was -4% and the “average length of haemmorrhages, treated” value ([4]; 5.0 mg/kg p.o., n = 18, control 92.9 ± 6.3) was 39.7 ± 8.1 mm. The “average length … change in %” value ([4]; 5.0 mg/kg p.o.) was -57%, the “average length of haemmorrhages, treated” value ([4]; 10.0 mg/kg p.o., n = 18, control 61.3 ± 9.8) was 14.2 ± 7.4 mm and the “average length … change in %” value ([4]; 10.0 mg/kg p.o.) was -77%. For the same compound, the “alcohol-induced lesions (in words)” value ([5]; 10 and 20 mg/kg) was “alcohol-induced lesions are reduced”, the “stomach” value ([5]; 100% ethanol + 10 mg/kg) was 0.91 ± 0.1 g and the “Evans-blue” value ([5]; 100% ethanol + 10 mg/kg) was 4.55 ± 0.3 µg/g. The “stomach” value ([5]; 100% ethanol + 20 mg/kg) was 0.93 ± 0.1 g, the “Evans-blue” value ([5]; 100% ethanol + 20 mg/kg) was 4.4 ± 0.23 µg/g and the ED50 [6] was 13 mg/kg. For the same compound, the “acid secretion μEqu/4^h” value ([7]; histamine 10 mg/kg s.c. + 5 mg/kg i.d.) was 180 ± 12 μEqu/4^h, the “acidity μEqu/ml” value [7, 14] was 105 ± 10 μEqu/ml and the “volume/4^h” value [7, 14] was 1.7 ± 0.2 mL. For the same compound, the “acid secretion μEqu/4^h” value ([7]; histamine s.c. + 10 mg/kg i.d.) was 111 ± 9 μEqu/4^h, the “acidity μEqu/ml” value ([7]; histamine s.c. + 10 mg/kg i.d., p < 0.05) was 123 ± 8 μEqu/ml and the inhibition % [8, 15] was 39%. The “ulcus index ± SEM” value [8, 15] was 15.6 ± 6.4, the inhibition % ([8]; naproxen, 30 mg/kg po.) was 95% and the “ulcus index ± SEM” value ([8]; naproxen, 30 mg/kg po., p < 0.01) was 1.2 ± 0.5. The “blood flow, pre-stomach” value ([9]; control 0.23 ± 0.03) was 0.19 ± 0.01 mL/min/g, the “blood flow, corpus” value ([9]; control 0.51 ± 0.03, p < 0.02) was 0.70 ± 0.09 mL/min/g and the “blood flow, anthrum” value ([9]; control 0.71 ± 0.07) was 1.01 ± 0.07 mL/min/g. The “number of ulcers, %change compared with control” value [10] was “+4%”, the “severity of ulcers, %change compared with control” value [10] was “+9%” and the ulcers per treated [10] was 5/5. For the same compound, the “acidity μEqu/ml” value ([11]; dose 5 i.d.) was 105 ± 5 μEqu/ml, the volume ([11]; dose 5 i.d., p < 0.05) was 1.4 ± 1.24 mL and the “acid secretion μEqu/4^h” value ([11]; dose 5 i.d., p < 0.05) was 147.0 ± 0.19 μEqu/4^h. The “acidity μEqu/ml” value ([11]; dose 10 i.d., not possible to titrate part of the secretion because of small volume) was 61 ± 5 μEqu/ml, the volume ([11]; dose 10 i.d., p < 0.01) was 0.58 ± 0.1 mL and the “acid secretion μEqu/4^h” value ([11]; dose 10 i.d., p < 0.01) was 42.0 ± 0.3 μEqu/4^h. The LD50 at 336 h [12] was 560 mg/kg.
